Measurements as given in publication PMC10673369, “Preliminary SAR of Novel Pleuromutilin–Polyamine Conjugates” (Microorganisms, 2023).

Legend:
S. aureus ATCC 25923 = test: ATP efflux assay, S. aureus; format: cell-based, Staphylococcus aureus; conditions: compound at 100 µg/mL
Method: (§1) ATP efflux assays were conducted using reported protocols (see Supplementary File).
(§2) The mechanism of antibiotic action of 9e towards the Gram-positive bacterium Staphylococcus aureus was attributed to its ability to disrupt the bacterial membrane and cause the release of intracellular ATP. The test organisms, being S. aureus ATCC 25923 and MRSA, were briefly exposed to 9e at a single dose of 100 µg/mL, with the leakage of ATP determined by the use of a bioluminescence assay (Figure 4). […] Nevertheless, a 40% level of ATP release is detrimental to the survival of the bacteria. After 3 min, it will be clear that the bacteria will be killed.
(§3) 2.9 ATP efflux measurement
(§4) A solution of the compound was prepared in twice-distilled water at a fixed concentration of 100 µg/mL. The different Gram-positive suspensions were prepared in MH II broth and were incubated at 37 °C. […] Subsequently, 50 µL of Luceferin–Luceferase reagent (Yelen, France) was added to the mixture, and the luminescent signal was quantified with an Infinite M200 microplate reader (Tecan, Männedorf, Switzerland) for five seconds. ATP concentration was quantified by internal sample addition. Squalamine (100 µg/mL) was used as a positive control to quantify the maximum level of ATP efflux and water as the negative control. […]

MRSA = test: ATP efflux assay, MRSA; format: cell-based, methicillin-resistant S. aureus; conditions: compound at 100 µg/mL
Method: as §1, §2, §3, §4

SMILES: C=C[C@]1(C)C[C@@H](OC(=O)CNCCCNCCCCCCCCCCNCCCNCC(=O)O[C@@H]2C[C@@](C)(C=C)[C@@H](O)[C@H](C)[C@]34CCC(=O)[C@H]3[C@@]2(C)[C@H](C)CC4)[C@]2(C)[C@H](C)CC[C@]3(CCC(=O)[C@H]32)[C@@H](C)[C@@H]1O.O=C(O)C(F)(F)F.O=C(O)C(F)(F)F.O=C(O)C(F)(F)F.O=C(O)C(F)(F)F [Compound 9e, N^1,N^1′-(Decane-1,10-diyl)bis(N^3-(2-(((3aR,4R,5R,7S,8S,9R,9aS,12R)-8-hydroxy-4,7,9,12-tetramethyl-3-oxo-7-vinyldecahydro-4,9a-propanocyclopenta [8]annulen-5-yl)oxy)-2-oxoethyl)propane-1,3-diaminium) 2,2,2-trifluoroacetate]
- ATP release relative to positive control squalamine (S. aureus ATCC 25923): 40%
- ATP release relative to positive control squalamine (MRSA): 40%
